Laboratory results from ChEMBL document CHEMBL1143489, “Design, synthesis, and enzymatic property of a sulfur-substituted analogue of trigalacturonic acid” (Bioorg Med Chem Lett, 2005).

Biological target: T1, Endopolygalactyuronase (Chondrostereum purpureum, UniProt P79074)
T1 sequence (P79074 whole entry): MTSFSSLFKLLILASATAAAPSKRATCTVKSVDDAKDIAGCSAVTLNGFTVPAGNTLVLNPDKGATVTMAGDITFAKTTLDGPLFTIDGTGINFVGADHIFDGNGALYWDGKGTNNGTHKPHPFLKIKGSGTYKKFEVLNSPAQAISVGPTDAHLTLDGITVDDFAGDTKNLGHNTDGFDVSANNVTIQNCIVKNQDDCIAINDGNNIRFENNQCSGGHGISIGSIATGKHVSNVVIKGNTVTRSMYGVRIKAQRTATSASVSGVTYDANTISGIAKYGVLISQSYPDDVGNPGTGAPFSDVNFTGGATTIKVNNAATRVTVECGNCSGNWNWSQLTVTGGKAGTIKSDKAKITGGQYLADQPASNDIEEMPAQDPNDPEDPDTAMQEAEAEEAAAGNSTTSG
Test: Dissociation constant against endo-polygalacturonase 1

Kd: 200 nM
SMILES: CO[C@H]1O[C@@H](C(=O)O)[C@H](S[C@H]2O[C@@H](C(=O)O)[C@H](O[C@H]3O[C@@H](C(=O)O)[C@H](O)[C@H](O)[C@@H]3O)[C@H](O)[C@@H]2O)[C@H](O)[C@@H]1O
